Measured values: patent US12534458B2, “Spiropiperidine allosteric modulators of nicotinic acetylcholine receptors” (Merck Sharp & Dohme LLC, priority 2019, dated 2026)

Each molecule was assayed against human α7 nAChR (Homo sapiens (Human), UniProt P36544) (assay: Automated patch-clamp electrophysiology functional assay (Assay A)). Conditions: IonFlux HT whole-cell population patch, HEK cell line stably expressing human RIC-3 and human α7, 40 μM acetylcholine.
Assay type: cell-based
Description: The α7 nAChR positive allosteric modulator (PAM) activity of the present compounds may be tested using assays known in the art. The α7 nAChR PAMs described herein have activities in an automated patch-clamp electrophysiology functional assay as described in the examples. The assay was performed using the IonFlux HT in a whole-cell, population patch configuration. See Golden et al. Assay Drug Dev. Technol. (2011) 9:608-619. The compounds were assessed for their ability to modulate the function of the human α7 nAChR stably expressed in a HEK cell line both in the presence, and in the absence of the natural α7 agonist acetylcholine. By performing a series of such measurements at different concentrations, the effective concentration of the α7 nAChR PAMs (EC50) was determined. See Spencer et al. Assay Drug Dev. Technol. (2012) 10:313-324.
Direct activation of α7 (agonism), and potentiation of acetylcholine-evoked α7 currents was determined as follows:
Automated patch-clamp electrophysiology was performed using the IonFlux HT (Fluxion Biosciences Inc., San Francisco, CA) in the whole-cell, population patch configuration. Test compounds were assessed for their ability to modulate the function of the α7 nicotinic acetylcholine receptor both in the presence, and in the absence of the natural α7 agonist acetylcholine. A HEK cell line stably expressing both human RIC-3 and human α7 (PrecisION hnAChR α7/RIC-3, Eurofins Pharma, St. Charles, MO) was cultured in 175 cm^2 triple-layer tissue culture flasks to no more than 90% confluency in DMEM/F-12 growth media supplemented with 10% heat-inactivated fetal bovine serum, 1% non-essential amino acids, 0.625 μg/mL Puromycin, and 400 μg/mL Geneticin. Immediately prior to assay, cells were detached by first aspirating growth media, rinsing with Dulbecco's phosphate buffered saline, and then adding 10 mL of Accutase (Innovative Cell Technologies, San Diego, CA) to the flask and then incubating at 37° C. for 5 minutes. Detached cells were then recovered by the addition of 40 mL of CHO-serum-free media supplemented with 25 mM HEPES, and rocked gently in a 50 mL conical tube for 20 minutes prior to patch-clamp assay. After recovery, cells were pelleted by centrifugation at 1,000 RPM for 1 minute in a compact bench top centrifuge; recovery media was aspirated and cells were resuspended in external recording solution (150 mM NaCl, 5 mM KCl, 2 mM CaCl2), 1 mM MgCl2, 10 mM HEPES, 12 mM dextrose) to a density of 5.0×10^6 cells/mL. The cell suspension was added to the cell inlet wells on an IonFlux HT population patch plate which had previously been rinsed and primed with deionized H2O. Test compounds were serially diluted in DMSO and then resuspended to the final test concentration in external recording solution, with, or without 40 μM acetylcholine added to the external recording solution; test compounds were then transferred to the IonFlux HT population patch plate. Internal recording solution (110 mM TrisPO4, 28 mM TrisBase, 0.1 mM CaCl2), 2 mM MgCl2, 11 mM EGTA, 4 mM MgATP) was added to the internal recording solution inlet wells on the IonFlux HT patch plate previously loaded with cells and test compounds, and the plate loaded into the IonFlux HT instrument. A protocol was executed on the IonFlux HT to trap the cells, break into the cells, and establish the whole-cell recording configuration; cells were voltage-clamped at a holding potential of −60 mV for the duration of the experiment, all experiments were conducted at room temperature, and the IonFlux HT injection pressure was 8 psi for solution applications. Upon establishing the whole-cell configuration, external recording solution was perfused into the recording chambers for 120 seconds and then 40 μM acetylcholine was applied for 1 second and immediately washed off with external recording solution for 60 seconds. […]

human α7 nAChR, sequence (P36544 23-502): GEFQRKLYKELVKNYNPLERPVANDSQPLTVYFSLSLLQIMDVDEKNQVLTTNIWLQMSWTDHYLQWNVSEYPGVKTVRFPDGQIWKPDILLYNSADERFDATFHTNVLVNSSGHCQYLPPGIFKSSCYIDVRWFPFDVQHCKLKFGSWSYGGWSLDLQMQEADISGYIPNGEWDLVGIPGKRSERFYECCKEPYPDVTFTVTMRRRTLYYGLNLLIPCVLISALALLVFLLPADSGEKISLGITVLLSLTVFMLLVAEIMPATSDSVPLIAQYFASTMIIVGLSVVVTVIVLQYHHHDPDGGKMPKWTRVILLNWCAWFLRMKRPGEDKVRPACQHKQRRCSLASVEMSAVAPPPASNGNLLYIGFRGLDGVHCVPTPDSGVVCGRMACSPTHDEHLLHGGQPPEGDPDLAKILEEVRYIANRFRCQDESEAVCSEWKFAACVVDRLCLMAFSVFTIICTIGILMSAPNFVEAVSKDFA

EC50 | Compound
1700 nM | NS(=O)(=O)N1CCC2(CC1)[C@@H](c1cc(-c3ccccc3)ccn1)C2(F)F [Example B2, (2S)-1,1-Difluoro-2-(4-phenylpyridin-2-yl)-6-azaspiro[2.5]octane-6-sulfonamide]
850 nM | NS(=O)(=O)N1CCC2(CC1)C(c1cccc(-c3conc3C3CC3)n1)C2(F)F (single isomer, unassigned) [Example C2, 2-[6-(3-Cyclopropylisoxazol-4-yl)pyridin-2-yl]-1,1-difluoro-6-azaspiro[2.5]octane-6-sulfonamide]
1000 nM | NS(=O)(=O)N1CCC2(CC1)[C@H](c1nc3ccccc3o1)C2(F)F [Example A3, (2R)-2-(1,3-Benzoxazol-2-yl)-1,1-difluoro-6-azaspiro[2.5]octane-6-sulfonamide]
4400 nM | NS(=O)(=O)N1CCC2(CC1)[C@@H](c1cccc(-c3ccc(C(F)(F)F)cc3)n1)C2(F)F [Example B1, (2S)-1,1-Difluoro-2-{6-[4-(trifluoromethyl)phenyl]pyridin-2-yl}-6-azaspiro[2.5]octane-6-sulfonamide]
1900 nM | NS(=O)(=O)N1CCC2(CC1)[C@H](c1nccc(-c3ccccc3)n1)C2(F)F [Example 4, (2R)-1,1-Difluoro-2-(4-phenylpyrimidin-2-yl)-6-azaspiro[2.5]octane-6-sulfonamide]
830 nM | NS(=O)(=O)N1CCC2(CC1)[C@H](c1cccc(-c3ccccc3C3CC3)n1)C2(F)F [Example A2, (2R)-2-[6-(2-Cyclopropylphenyl)pyridin-2-yl]-1,1-difluoro-6-azaspiro[2.5]octane-6-sulfonamide]
930 nM | NS(=O)(=O)N1CCC2(CC1)C[C@H]2c1nc2ccccc2s1 [Example 1, (1R)-1-(1,3-Benzothiazol-2-yl)-6-azaspiro[2.5]octane-6-sulfonamide]
1600 nM | NS(=O)(=O)N1CCC2(CC1)C(c1cccc(-c3ccccc3)n1)C2(F)F (stereo not shown) [Example 2, 1,1-Difluoro-2-(6-phenylpyridin-2-yl)-6-azaspiro[2.5]octane-6-sulfonamide]
3000 nM | NS(=O)(=O)N1CCC2(CC1)CC2c1cccc(-c2ccccc2)n1 (stereo not shown) [Example 3, 1-(6-Phenylpyridin-2-yl)-6-azaspiro[2.5]octane-6-sulfonamide]
340 nM | NS(=O)(=O)N1CCC2(CC1)[C@H](c1cccc(-c3ccc(C(F)(F)F)cc3)n1)C2(F)F [Example 5, (2R)-1,1-Difluoro-2-{6-[4-(trifluoromethyl)phenyl]pyridin-2-yl}-6-azaspiro[2.5]octane-6-sulfonamide]
430 nM | NS(=O)(=O)N1CCC2(CC1)C(c1cccc(-c3cccc(C(F)(F)F)c3)c1)C2(F)F (racemic) [Example C1, 1,1-Difluoro-2-[3′-(trifluoromethyl)biphenyl-3-yl]-6-azaspiro[2.5]octane-6-sulfonamide]
190 nM | NS(=O)(=O)N1CCC2(CC1)[C@H](c1cc(-c3ccccc3)ccn1)C2(F)F [Example A1, (2R)-1,1-Difluoro-2-(4-phenylpyridin-2-yl)-6-azaspiro[2.5]octane-6-sulfonamide]
2200 nM | Cc1ccccc1-c1cccc([C@@H]2C(F)(F)C23CCN(S(N)(=O)=O)CC3)n1 [Example 6, (2R)-1,1-Difluoro-2-[6-(2-methylphenyl)pyridin-2-yl]-6-azaspiro[2.5]octane-6-sulfonamide]
